According to US20190275012A9, “SUBSTITUTED THIAZOLO-PYRIDINE COMPOUNDS AS MALT1 INHIBITORS” (Lupin Limited, priority 2016, published 2019):

Columns and labels:
[1] = biological target: T1, full length MALT1 enzyme (Homo sapiens, UniProt Q9UDY8); assay: MALT1 biochemical assay (fluorescence based, Ac-Leu-Arg-Ser-Arg-AMC cleavage); details: full length MALT1 protein, 2 h pre-incubation at RT, tetrapeptide substrate Ac-Leu-Arg-Ser-Arg-AMC, read-out: Malt 1 inhibition IC50
T1 construct: a fluorescence based assay with full length MALT1 enzyme
T1 sequence (Q9UDY8 1-824): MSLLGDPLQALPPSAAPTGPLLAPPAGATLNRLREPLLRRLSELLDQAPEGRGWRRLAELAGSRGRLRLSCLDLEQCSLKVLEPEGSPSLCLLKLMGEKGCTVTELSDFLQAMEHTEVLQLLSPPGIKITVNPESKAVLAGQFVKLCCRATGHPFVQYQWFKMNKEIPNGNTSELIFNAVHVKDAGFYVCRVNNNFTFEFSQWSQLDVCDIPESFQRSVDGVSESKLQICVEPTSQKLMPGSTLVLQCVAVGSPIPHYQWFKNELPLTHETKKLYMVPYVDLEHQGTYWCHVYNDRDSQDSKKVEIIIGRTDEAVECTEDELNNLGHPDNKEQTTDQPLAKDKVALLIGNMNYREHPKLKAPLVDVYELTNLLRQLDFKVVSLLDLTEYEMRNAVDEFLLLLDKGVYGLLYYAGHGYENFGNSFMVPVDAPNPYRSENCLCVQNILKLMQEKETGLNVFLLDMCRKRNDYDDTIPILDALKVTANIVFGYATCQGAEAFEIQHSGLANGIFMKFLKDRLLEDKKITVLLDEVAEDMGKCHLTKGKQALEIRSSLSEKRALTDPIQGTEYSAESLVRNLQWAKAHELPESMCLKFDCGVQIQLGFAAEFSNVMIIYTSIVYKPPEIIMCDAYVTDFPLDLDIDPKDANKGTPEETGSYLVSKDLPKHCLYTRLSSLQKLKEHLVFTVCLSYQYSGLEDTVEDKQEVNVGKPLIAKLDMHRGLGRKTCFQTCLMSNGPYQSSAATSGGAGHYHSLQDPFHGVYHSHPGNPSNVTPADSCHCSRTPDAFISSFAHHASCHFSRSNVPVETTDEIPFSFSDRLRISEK
Procedure, shortened: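 Full-length MALT1 (100-300 ng/well) was pre-incubated with compound for 2 h at RT, then 100 μM Ac-LRSR-AMC was added for 4-12 h. Buffer was 50 mM MES, 150 mM NaCl, 0.1% CHAPS, 1 M ammonium citrate, 10 mM DTT, pH 7, with 0.5% DMSO. IC50 was derived from AMC fluorescence (ex 360/em 460 nm).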

[2] = system: OCI-Ly-10 cells; assay: Anticancer assay (14 days), cell viability by CCK-8; format: cell-based; details: Homo sapiens, OCI-Ly10, 336 h, 14 days treatment, fresh treatment every 5th day, CCK-8 viability, read-out: Ly-10 (14d) inhibition IC50
Description: OCI-Ly-10 cells (UHN, Canada) seeded in culture media (IMDM+20% FBS) in 96-well plates were treated with various concentrations of the test compounds. Cells were treated for a period of 14 days (13-15 days depending on the confluency of cells) with fresh treatments every 5th day. After the first treatment, for all subsequent treatments, the cells were centrifuged, the spent media was removed and fresh media containing the test compound was added. Cell viability was assessed using CCK-8 kit (Dojindo Laboratories, China) as per manufacturer's instructions. Plates were read in colorimeter and absorbance was detected. (Detection at 450 nm; Background correction at 650 nm). % inhibition was calculated relative to the samples containing media with 0.1% DMSO alone as per the following formula

[3] = system: NF-kB transcriptional activity in HEK-293-NF-kB-Luc cell line overexpressing MALT1; assay: NF-kB reporter assay (luciferase, MALT1 stably overexpressed); format: cell-based; details: Homo sapiens, 24 h, HEK-293-NF-kB-Luc cells stably overexpressing MALT1, 24 h treatment, Bright Glo luminescence; read-out: NF-kB inhibition IC50
Procedure, shortened: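 HEK-293-NF-κB-Luc cells stably overexpressing MALT1 were seeded overnight, then exposed to test compounds for 24 h. Bright Glo added 10 min at ambient temperature and luminescence read; % inhibition calculated against 0.1% DMSO controls.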

SMILES	IC50 [1]	IC50 [2]	IC50 [3]
COC(c1c(NC(=O)Nc2cnc(-n3nccn3)c(C(F)(F)F)c2)cnc2sc(C)nc12)C(C)(C)C (single isomer, unassigned) [Compound 57b, 1-(6-(2H-1,2,3-Triazol-2-yl)-5-(trifluoromethyl)pyridin-3-yl)-3-(7-(1-methoxy-2,2-dimethylpropyl)-2-methylthiazolo[5,4-b]pyridin-6-yl)urea]	1 to 50 nM	26 to 100 nM	1 to 100 nM
CCC(c1c(NC(=O)Nc2cnc(-n3nccn3)c(C(F)(F)F)c2)cnc2sc(C)nc12)N(C)C (single isomer, unassigned) [Compound 75b, 1-(6-(2H-1,2,3-Triazol-2-yl)-5-(trifluoromethyl)pyridin-3-yl)-3-(7-(1-(dimethylamino)propyl)-2-methylthiazolo[5,4-b]pyridin-6-yl)urea]	51 to 100 nM	26 to 100 nM	1 to 100 nM
Cc1nc2c(C(C3CC3)N(C)C)c(NC(=O)Nc3cnc(-n4nccn4)c(C(F)(F)F)c3)cnc2s1 (single isomer, unassigned) [Compound 76b, 1-(6-(2H-1,2,3-Triazol-2-yl)-5-(trifluoromethyl)pyridin-3-yl)-3-(7-(cyclopropyl(dimethylamino)methyl)-2-methylthiazolo[5,4-b]pyridin-6-yl)urea]	1 to 50 nM	0.1 to 25 nM	1 to 100 nM
COC(c1c(NC(=O)Nc2cnc(-n3nccn3)c(Cl)c2)cnc2sc(C)nc12)C(C)C (single isomer, unassigned) [Compound 79b, 1-(5-Chloro-6-(2H-1,2,3-triazol-2-yl)pyridin-3-yl)-3-(7-(1-methoxy-2-methylpropyl)-2-methylthiazolo[5,4-b]pyridin-6-yl)urea]	1 to 50 nM	26 to 100 nM	1 to 100 nM
COc1nc(-n2nccn2)c(C(F)(F)F)cc1NC(=O)Nc1cnc2sc(C)nc2c1C(OC)C(C)C (single isomer, unassigned) [Compound 80b, 1-(7-(1-Methoxy-2-methylpropyl)-2-methylthiazolo[5,4-b]pyridin-6-yl)-3-(2-methoxy-6-(2H-1,2,3-triazol-2-yl)-5-(trifluoromethyl)pyridin-3-yl)urea]	1 to 50 nM	26 to 100 nM	1 to 100 nM
COc1nc(-n2nccn2)c(Cl)cc1NC(=O)Nc1cnc2sc(C)nc2c1C(OC)C(C)C (single isomer, unassigned) [Compound 81b, 1-(5-Chloro-2-methoxy-6-(2H-1,2,3-triazol-2-yl)pyridin-3-yl)-3-(7-(1-methoxy-2-methylpropyl)-2-methylthiazolo[5,4-b]pyridin-6-yl)urea]	1 to 50 nM	26 to 100 nM	1 to 100 nM
COC(c1ccc(F)cc1)c1c(NC(=O)Nc2cnc(-n3nccn3)c(C(F)(F)F)c2)cnc2sc(C)nc12 (single isomer, unassigned) [Compound 85a, 1-(6-(2H-1,2,3-Triazol-2-yl)-5-(trifluoromethyl)pyridin-3-yl)-3-(7-((4-fluorophenyl)(methoxy)methyl)-2-methylthiazolo[5,4-b]pyridin-6-yl)urea]	1 to 50 nM	101 to 250 nM	1 to 100 nM
COC(C)(c1c(NC(=O)Nc2ccc(-n3nccn3)c(C(F)(F)F)c2)cnc2sc(C)nc12)C1CC1 (single isomer, unassigned) [Compound 94b, 1-(4-(2H-1,2,3-triazol-2-yl)-3-(trifluoromethyl)phenyl)-3-(7-(1-cyclopropyl-1-methoxyethyl)-2-methylthiazolo[5,4-b]pyridin-6-yl)urea]	1 to 50 nM	26 to 100 nM	1 to 100 nM
COC(c1c(NC(=O)Nc2cnc(-n3nccn3)c(C(F)(F)F)c2)cnc2sc(C)nc12)C(F)(F)F (single isomer, unassigned) [Compound 95b, 1-(6-(2H-1,2,3-triazol-2-yl)-5-(trifluoromethyl)pyridin-3-yl)-3-(2-methyl-7-(2,2,2-trifluoro-1-methoxyethyl)thiazolo[5,4-b]pyridin-6-yl)urea]	1 to 50 nM	0.1 to 25 nM	1 to 100 nM

Further lines, with some results ahead:

IC50 [1]	IC50 [2]	SMILES	IC50 [3]
1 to 50 nM	501 to 1500 nM	CCOC(C)c1c(NC(=O)Nc2cnc(OC)c(Cl)c2)cnc2sc(C)nc12 (racemic) [Compound 162, 1-(5-Chloro-6-methoxypyridin-3-yl)-3-(7-(1-ethoxyethyl)-2-methylthiazolo[5,4-b]pyridin-6-yl)urea]	1 to 100 nM
1 to 50 nM	0.1 to 25 nM	COC(C)c1c(NC(=O)Nc2ccc(-n3nccn3)c(C(F)(F)F)c2)cnc2sc(C)nc12 (single isomer, unassigned) [Compound 143b, 1-(4-(2H-1,2,3-Triazol-2-yl)-3-(trifluoromethyl)phenyl)-3-(7-(1-methoxyethyl)-2-methylthiazolo[5,4-b]pyridin-6-yl)urea]	1 to 100 nM
1 to 50 nM	0.1 to 25 nM	COC(c1c(NC(=O)Nc2ccc(-n3nccn3)c(Cl)c2)cnc2sc(C)nc12)C1CC1 (single isomer, unassigned) [Compound 144b, 1-(3-Chloro-4-(2H-1,2,3-triazol-2-yl)phenyl)-3-(7-(cyclopropyl(methoxy)methyl)-2-methylthiazolo[5,4-b]pyridin-6-yl)urea]	1 to 100 nM
1 to 50 nM	0.1 to 25 nM	CCC(OC)c1c(NC(=O)Nc2cnc(-n3nccn3)c(Cl)c2)cnc2sc(C)nc12 (single isomer, unassigned) [Compound 145b, 1-(5-Chloro-6-(2H-1,2,3-triazol-2-yl)pyridin-3-yl)-3-(7-(1-methoxypropyl)-2-methylthiazolo[5,4-b]pyridin-6-yl)urea]	1 to 100 nM
1 to 50 nM	0.1 to 25 nM	CCC(OC)c1c(NC(=O)Nc2ccc(-n3nccn3)c(C(F)(F)F)c2)cnc2sc(C)nc12 (single isomer, unassigned) [Compound 147b, 1-(4-(2H-1,2,3-Triazol-2-yl)-3-(trifluoromethyl)phenyl)-3-(7-(1-methoxypropyl)-2-methylthiazolo[5,4-b]pyridin-6-yl)urea]	1 to 100 nM
1 to 50 nM	26 to 100 nM	COC(c1c(NC(=O)Nc2ccc(-n3nccn3)c(C(F)(F)F)c2)cnc2sc(C)nc12)C1CC1 (single isomer, unassigned) [Compound 153b, 1-(4-(2H-1,2,3-Triazol-2-yl)-3-(trifluoromethyl)phenyl)-3-(7-(cyclopropyl(methoxy)methyl)-2-methylthiazolo[5,4-b]pyridin-6-yl)urea]	1 to 100 nM
1 to 50 nM	0.1 to 25 nM	COC(C)c1c(NC(=O)Nc2ccc(-n3nccn3)c(Cl)c2)cnc2sc(C)nc12 (single isomer, unassigned) [Compound 158b, 1-(3-Chloro-4-(2H-1,2,3-triazol-2-yl)phenyl)-3-(7-(1-methoxyethyl)-2-methylthiazolo[5,4-b]pyridin-6-yl)urea]	1 to 100 nM
1 to 50 nM	26 to 100 nM	CCOC(C)c1c(NC(=O)Nc2cnc(-n3nccn3)c(C(F)(F)F)c2)cnc2sc(C)nc12 (single isomer, unassigned) [Compound 165b, 1-(6-(2H-1,2,3-Triazol-2-yl)-5-(trifluoromethyl)pyridin-3-yl)-3-(7-(1-ethoxyethyl)-2-methylthiazolo[5,4-b]pyridin-6-yl)urea]	1 to 100 nM
